Data from the supplement of paper PMC10307832.

Key:
Experiment in all cases: relative viability (nuclei count vs DMSO), 5 days (fraction); higher = more cells survive
NCI-H2023 = system: NCI-H2023
Summary of the method: (§1)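 Lung cancer cell lines were pin-tool dosed in 1536-well plates on the day after seeding, with either a lone drug or a fixed anchor-drug dose plus five library-drug doses (not always all listed) in √10 steps. Nuclei were counted on 4× images after 5 days. Relative viability is the ratio of treated-well to vehicle-well nuclei counts, with each value a median of duplicate plates.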

NCI-H2087 = system: NCI-H2087
Summary of the method: as §1

LC-2-ad = system: LC-2-ad
Summary of the method: as §1

NCI-H1650 = system: NCI-H1650
Summary of the method: as §1

NCI-H460 = system: NCI-H460
Summary of the method: as §1

CAL-12T = system: CAL-12T
Summary of the method: as §1

A-427 = system: A-427
Summary of the method: as §1

NCI-H1944 = system: NCI-H1944
Summary of the method: as §1

ABC-1 = system: ABC-1
Summary of the method: as §1

NCI-H596 = system: NCI-H596
Summary of the method: as §1

NCI-H441 = system: NCI-H441
Summary of the method: as §1

NCI-H727 = system: NCI-H727
Summary of the method: as §1

BEN = system: BEN
Summary of the method: as §1

LCLC-97TM1 = system: LCLC-97TM1
Summary of the method: as §1

NCI-H520 = system: NCI-H520
Summary of the method: as §1

H3255 = system: H3255
Summary of the method: as §1

NCI-H661 = system: NCI-H661
Summary of the method: as §1

NCI-H1915 = system: NCI-H1915
Summary of the method: as §1

201T = system: 201T
Summary of the method: as §1

PC-3 [JPC-3] = system: PC-3 [JPC-3]
Summary of the method: as §1

NCI-H650 = system: NCI-H650
Summary of the method: as §1

NCI-H1651 = system: NCI-H1651
Summary of the method: as §1

SMILES: COc1cc2nccc(Oc3ccc(NC(=O)Nc4cc(C)on4)c(Cl)c3)c2cc1OC [Tivozanib] + O=C(c1cc(Cc2n[nH]c(=O)c3ccccc23)ccc1F)N1CCN(C(=O)C2CC2)CC1 [Olaparib] (partner 8 µM)
- relative viability (NCI-H2023; first compound 0.005 µM): 0.469
- relative viability (NCI-H2023; first compound 0.01581 µM): 0.476
- relative viability (NCI-H2023; first compound 0.05 µM): 0.454
- relative viability (NCI-H2023; first compound 0.1581 µM): 0.481
- relative viability (NCI-H2023; first compound 0.5 µM): 0.454
- relative viability (NCI-H2087; first compound 0.005 µM): 0.542
- relative viability (NCI-H2087; first compound 0.01581 µM): 0.51
- relative viability (NCI-H2087; first compound 0.05 µM): 0.652
- relative viability (NCI-H2087; first compound 0.1581 µM): 0.683
- relative viability (NCI-H2087; first compound 0.5 µM): 0.713
- relative viability (LC-2-ad; first compound 0.005 µM): 0.768
- relative viability (LC-2-ad; first compound 0.01581 µM): 0.793
- relative viability (LC-2-ad; first compound 0.05 µM): 0.787
- relative viability (LC-2-ad; first compound 0.1581 µM): 0.794
- relative viability (LC-2-ad; first compound 0.5 µM): 0.729
- relative viability (NCI-H1650; first compound 0.005 µM): 0.714
- relative viability (NCI-H1650; first compound 0.01581 µM): 0.94
- relative viability (NCI-H1650; first compound 0.05 µM): 0.855
- relative viability (NCI-H1650; first compound 0.1581 µM): 0.837
- relative viability (NCI-H1650; first compound 0.5 µM): 0.863
- relative viability (NCI-H460; first compound 0.005 µM): 0.377
- relative viability (NCI-H460; first compound 0.01581 µM): 0.469
- relative viability (NCI-H460; first compound 0.05 µM): 0.496
- relative viability (NCI-H460; first compound 0.1581 µM): 0.393
- relative viability (NCI-H460; first compound 0.5 µM): 0.356
- relative viability (CAL-12T; first compound 0.005 µM): 0.666
- relative viability (CAL-12T; first compound 0.01581 µM): 0.654
- relative viability (CAL-12T; first compound 0.05 µM): 0.75
- relative viability (CAL-12T; first compound 0.1581 µM): 0.812
- relative viability (CAL-12T; first compound 0.5 µM): 0.584
- relative viability (A-427; first compound 0.005 µM): 0.667
- relative viability (A-427; first compound 0.01581 µM): 0.747
- relative viability (A-427; first compound 0.05 µM): 0.774
- relative viability (A-427; first compound 0.1581 µM): 0.709
- relative viability (A-427; first compound 0.5 µM): 0.737
- relative viability (NCI-H1944; first compound 0.005 µM): 0.331
- relative viability (NCI-H1944; first compound 0.01581 µM): 0.395
- relative viability (NCI-H1944; first compound 0.05 µM): 0.416
- relative viability (NCI-H1944; first compound 0.1581 µM): 0.406
- relative viability (NCI-H1944; first compound 0.5 µM): 0.376
- relative viability (ABC-1; first compound 0.005 µM): 0.815
- relative viability (ABC-1; first compound 0.01581 µM): 0.837
- relative viability (ABC-1; first compound 0.05 µM): 0.579
- relative viability (ABC-1; first compound 0.1581 µM): 1.02
- relative viability (ABC-1; first compound 0.5 µM): 0.67
- relative viability (NCI-H596; first compound 0.005 µM): 0.621
- relative viability (NCI-H596; first compound 0.01581 µM): 0.696
- relative viability (NCI-H596; first compound 0.05 µM): 0.773
- relative viability (NCI-H596; first compound 0.5 µM): 0.706
- relative viability (NCI-H441; first compound 0.005 µM): 0.538
- relative viability (NCI-H441; first compound 0.01581 µM): 0.531
- relative viability (NCI-H441; first compound 0.05 µM): 0.525
- relative viability (NCI-H441; first compound 0.1581 µM): 0.432
- relative viability (NCI-H441; first compound 0.5 µM): 0.396
- relative viability (NCI-H727; first compound 0.005 µM): 0.678
- relative viability (NCI-H727; first compound 0.01581 µM): 0.787
- relative viability (NCI-H727; first compound 0.05 µM): 0.823
- relative viability (NCI-H727; first compound 0.1581 µM): 0.786
- relative viability (NCI-H727; first compound 0.5 µM): 0.74
- relative viability (BEN; first compound 0.005 µM): 0.979
- relative viability (BEN; first compound 0.01581 µM): 1.09
- relative viability (BEN; first compound 0.05 µM): 1.07
- relative viability (BEN; first compound 0.1581 µM): 1.03
- relative viability (BEN; first compound 0.5 µM): 0.888
- relative viability (LCLC-97TM1; first compound 0.005 µM): 0.35
- relative viability (LCLC-97TM1; first compound 0.01581 µM): 0.34
- relative viability (LCLC-97TM1; first compound 0.05 µM): 0.321
- relative viability (LCLC-97TM1; first compound 0.1581 µM): 0.427
- relative viability (LCLC-97TM1; first compound 0.5 µM): 0.436
- relative viability (NCI-H520; first compound 0.005 µM): 0.42
- relative viability (NCI-H520; first compound 0.01581 µM): 0.354
- relative viability (NCI-H520; first compound 0.05 µM): 0.334
- relative viability (NCI-H520; first compound 0.1581 µM): 0.315
- relative viability (NCI-H520; first compound 0.5 µM): 0.301
- relative viability (H3255; first compound 0.005 µM): 0.544
- relative viability (H3255; first compound 0.01581 µM): 0.56
- relative viability (H3255; first compound 0.05 µM): 0.541
- relative viability (H3255; first compound 0.1581 µM): 0.602
- relative viability (H3255; first compound 0.5 µM): 0.513
- relative viability (NCI-H661; first compound 0.005 µM): 0.703
- relative viability (NCI-H661; first compound 0.01581 µM): 0.708
- relative viability (NCI-H661; first compound 0.05 µM): 0.741
- relative viability (NCI-H661; first compound 0.1581 µM): 0.77
- relative viability (NCI-H661; first compound 0.5 µM): 0.699
- relative viability (NCI-H1915; first compound 0.005 µM): 0.255
- relative viability (NCI-H1915; first compound 0.01581 µM): 0.279
- relative viability (NCI-H1915; first compound 0.05 µM): 0.286
- relative viability (NCI-H1915; first compound 0.1581 µM): 0.291
- relative viability (NCI-H1915; first compound 0.5 µM): 0.206
- relative viability (201T; first compound 0.005 µM): 0.826
- relative viability (201T; first compound 0.01581 µM): 0.853
- relative viability (201T; first compound 0.05 µM): 0.821
- relative viability (201T; first compound 0.1581 µM): 0.875
- relative viability (201T; first compound 0.5 µM): 0.868
- relative viability (PC-3 [JPC-3]; first compound 0.01581 µM): 1.22
- relative viability (PC-3 [JPC-3]; first compound 0.05 µM): 1.11
- relative viability (PC-3 [JPC-3]; first compound 0.1581 µM): 1.15
- relative viability (PC-3 [JPC-3]; first compound 0.5 µM): 1.09
- relative viability (NCI-H650; first compound 0.005 µM): 0.321
- relative viability (NCI-H650; first compound 0.01581 µM): 0.359
- relative viability (NCI-H650; first compound 0.05 µM): 0.42
- relative viability (NCI-H650; first compound 0.1581 µM): 0.401
- relative viability (NCI-H650; first compound 0.5 µM): 0.323
- relative viability (NCI-H1651; first compound 0.005 µM): 0.187
- relative viability (NCI-H1651; first compound 0.01581 µM): 0.188
- relative viability (NCI-H1651; first compound 0.05 µM): 0.198
- relative viability (NCI-H1651; first compound 0.1581 µM): 0.203
- relative viability (NCI-H1651; first compound 0.5 µM): 0.158
